The term IC50 denotes the point on the concentration scale where inhibition reaches its midpoint.

The test system of one experiment is IL-1β. Briefly: Inhibitory activity on IL-1β.
For the next experiment, the system named is IFN gamma. Put plainly: IFN gamma secretion assay in human PBMCs (PHA-M-stimulated, ELISA). In kind it is cell-based. The following applies: PBMC, PHA-M 10 ug/mL 40 hr, read-out: IFNγ inhibitory activity IC50. The method, then: Fetal bovine serum (FBS) was obtained from ThermoFisher (Cat #16000044). • Other reagents: 96well TC plates were obtained from ThermoFisher (Cat #07-2000-90).
IFN-gamma was assessed using a standard ELISA protocol. Cryopreserved PBMCs were thawed in a water bath and transferred to 50 mL polypropylene tubes. The cells were washed two times with 25 mL of RPMI medium supplemented with 5% of regular FBS and re-suspended at a density of 1.5^10^6 cells/mL. The cells were plated into 96 well TC late (100 uL/well). Serially diluted compound was added to the cells in duplicate wells for each concentration. Control wells received DMSO only (0.3% final). The cells were pre-incubated with compound for 2 hr. After pre-incubation, the cells were stimulated by PHA-M (10 ug/mL) for 40 hr. Control samples with and without PHA-M in the absence of compound were assembled in each test plate. IFNg was detected in media supernatants by using a sandwich anti-IFNg ELISA kit (BD Biosciences) according to protocol provided by the manufacturer. ELISA readout (optical density at 450 nm) is commensurable with the amount of IFNg produced by the cells. Assay window was determined in each experiment by comparing average OD450 values in stimulated and un-stimulated samples in the absence of compound. ELISA calibration was performed in each detection plate using serially diluted recombinant human IFN gamma, to ensure that OD450 values for all test samples were within linear range of detection.%-Inhibition by compound was calculated using following equation:
[formula] • where OD450100% is optical density in control samples stimulated with PHA-M without compound, OD4500% is optical density in unstimulated control samples, and OD450compound is optical density in a sample stimulated with PHA-M in the presence of compound.
(§1) The calculated %-Inh values were plotted against compound concentration. To determine IC50 values, dose-response curves were fitted by a 4-parameter sigmoid inhibition model using XLFit® software (IDBS).

The target of experiment [1] is T1, Recombinant human ALOX15 (Arachidonate 15-Lipoxygenase) (Homo sapiens, UniProt P16050).
T1 construct: full length encompassing amino acids 2-662(end); FLAG (N); purchased BPS Biosciences 50220
T1 sequence (P16050 2-662): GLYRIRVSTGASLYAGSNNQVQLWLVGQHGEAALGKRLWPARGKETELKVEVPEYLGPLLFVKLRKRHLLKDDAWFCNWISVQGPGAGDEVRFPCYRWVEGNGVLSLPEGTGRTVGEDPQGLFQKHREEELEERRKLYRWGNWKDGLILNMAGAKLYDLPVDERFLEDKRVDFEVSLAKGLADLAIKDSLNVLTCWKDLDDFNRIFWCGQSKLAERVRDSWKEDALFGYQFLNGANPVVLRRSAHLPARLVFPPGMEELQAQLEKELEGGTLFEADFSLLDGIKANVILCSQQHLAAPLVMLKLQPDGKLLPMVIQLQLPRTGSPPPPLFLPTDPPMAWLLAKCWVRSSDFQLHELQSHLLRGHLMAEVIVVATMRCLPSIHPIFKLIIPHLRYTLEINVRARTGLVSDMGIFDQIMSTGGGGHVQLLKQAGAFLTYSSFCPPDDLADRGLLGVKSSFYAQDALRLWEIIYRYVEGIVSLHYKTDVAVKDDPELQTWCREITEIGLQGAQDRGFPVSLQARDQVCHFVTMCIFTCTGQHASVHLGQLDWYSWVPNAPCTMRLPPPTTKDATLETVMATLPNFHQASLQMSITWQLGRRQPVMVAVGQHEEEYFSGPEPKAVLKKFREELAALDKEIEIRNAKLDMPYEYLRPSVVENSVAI
Briefly: Biochemical LOX-15 assay.
From the text: • Recombinant human ALOX15 (Arachidonate 15-Lipoxygenase), full length encompassing amino acids 2-662(end). In this construct the N-terminal end of ALOX15 is fused with a FLAG tag was obtained from BPS Biosciences (Cat #50220). • Dihydrorhodamine 123, DHR, was obtained from Sigma (Cat #1054) • Arachidonic acid, AA, was obtained from Sigma (Cat #A3611) • Other reagents: black 384 well assay plates were obtained from Corning (Cat #3820). • Equipment: Synergy Neo2 Multi-mode plate reader (Biotek), Labcyte 550 acoustic dispenser (Labcyte), Biomek FX robotic dispenser (Beckman Coulter), Sorvall Legend RT centrifuge (Kendro).
The LOX-15 assay was performed in assay buffer comprising: 50 mM Tris (pH 7.5),), 5 uM DHR, 50 uM AA, and 50 nM recombinant enzyme. Serially diluted compounds were prepared in DMSO in Echo qualified 384 well plates. An assay buffer was then prepared without supplemented 10 uM DHRA. 10 uL of the supplemented buffer was dispensed into control (no enzyme) wells in the black 384well assay plate. Next, a 2× enzyme solution was prepared, comprising 100 nM LOX-15 enzyme in the supplemented assay buffer. 10 uL of the 2× enzyme solution was then dispensed into test wells in the black 384well assay plate. Serially diluted compounds were added to the assay plate by acoustic dispensing (Labcyte 550). Control wells received DMSO only.
Next, the 2× substrate was prepared to comprise 100 uM arachidonic acid in the assay buffer. 10 uL of the 2× substrate was then added to all wells in the assay plate. The plate was incubated for 3 hours. The plate was read on Synergy Neo2 in fluorescence mode: excitation 485 nm, emission 530 nm. % inhibition and the resulting IC50 was calculated for the compound using the following equation:
[formula] • where RFU100% is fluorescence in control samples without compound, RFU0% is fluorescence in control samples without LOX-15, and RFUcompound fluorescence in a sample with compound.
as §1

[2] abbreviates: 50 nM recombinant enzyme, 50 uM AA, read-out: 15-Lox inhibitory activity IC50.

Like-named read-outs stand apart in the source and are kept apart here.

`CCCCCC1=CC(=O)C2=C(OC(C)(CCC=C(C)C)C=C2)C1=O` (stereo not drawn) [Formula II]: the half-maximal inhibitory concentration (IC50) with IL-1β worked out at 1.72 µM; in the experiment with IFN gamma, 0.39 µM; in experiment [1] (setting [2]), 5.4 µM.

Consider `CCCCCc1cc(OC(C)=O)c2c(c1OC(C)=O)OC(C)(CCC=C(C)C)C=C2` (stereo not drawn) [Formula XXIII], for which the IC50 in the experiment with IL-1β is 0.97 µM; in the experiment with IFN gamma, 0.48 µM; in experiment [1] (setting [2]) it was above 10 µM.

Consider `CCCCCc1cc(O)c2c(c1O)OC(C)(CCC=C(C)C)C=C2` (stereo not drawn) [Formula XXII], for which the half-maximal inhibitory concentration (IC50) with IL-1β came out at 3.3 µM; in the experiment on IFN gamma, 1.97 µM; in experiment [1] (setting [2]), 1.22 µM.

Turning to `CCCCCc1cc(OC)c2c(c1OC)OC(C)(CCC=C(C)C)C=C2` (stereo not drawn) [Formula XXIV], the concentration for half-maximal inhibition (IC50) is above 10 µM in the experiment on IL-1β, 4.2 µM in the experiment with IFN gamma and above 10 µM in experiment [1] (setting [2]).

With `CCCCCC1=C(NCC)C(=O)C2=C(OC(C)(CCC=C(C)C)C=C2)C1=O` (stereo not drawn) [Formula XXVIII], the 50% inhibitory concentration (IC50) (in the experiment on IL-1β; in the experiment on IFN gamma; in experiment [1] (setting [2])) was above 10 µM each time.

With `CC(C)=CCCC1(C)C=CC2=C(O1)C(=O)c1ccccc1C2=O` (stereo not drawn) [Formula XXVII], the half-inhibitory concentration (IC50) (in the experiment on IL-1β; in the experiment with IFN gamma; in experiment [1]) was above 10 µM in each case.

For `CCCCCC1=CC(=O)C2=C(O[C@](C)(CCC=C(C)C)C=C2)C1=O` [Formula XXVI], the half-inhibitory concentration (IC50) in the experiment on IL-1β was determined as 0.54 µM; in the experiment on IFN gamma it was 0.31 µM; in experiment [1] (setting [2]), 1.93 µM.

Consider `CCCCCC1=C(NCCC)C(=O)C2=C(OC(C)(CCC=C(C)C)C=C2)C1=O` (stereo not drawn) [Formula XXV], for which the figures for the IC50 (in the experiment on IL-1β; in the experiment with IFN gamma; in experiment [1] (setting [2])) were above 10 µM, above 10 µM and 5.7 µM, respectively.

The values above are taken from patent US20250057859A1, “CANNABICHROMENEQUINONE AND ANALOGUES THEREOF, AND METHOD OF USING COMPOSITIONS THEREOF AS ANTI-INFLAMMATORY AGENTS” (Juva Life, Inc., priority 2021, published 2025).
